For one data set, the system named is glutathione. Description: GSH stability (glutathione reactivity) assay by LC-MS/MS. Type of data set: physicochemical. Conditions: PBS containing 5 mM reduced glutathione; PBS + 5 mM GSH; extrapolated from 240 min assay. The text has this:
Furthermore, we wanted to determine the kinetics of the BRD4BD2-DCAF16 interaction given its covalent nature. […] Additionally, to understand the relationship between ternary complex formation kinetics and warhead reactivity we measured the depletion of the covalent analogs in the presence of glutathione using MS (Table S2). […].

For data set [1], the target named is T1, BRD4 (Homo sapiens, UniProt O60885). Description: Washout experiment, Western blot of BRD4 degradation in K562 cells. On the set-up: an 11 amino acid peptide knock-in tag to a protein-of-interest using CRISPR insertion; endogenous in cells. The settings on record: K562, 1 μM, 4 h treatment, washout, 20 h compound-free vs 24 h no washout. Type of data set: cell-based. As to the method: This experiment involves cell treatment and incubation with a ‘covalent’ compound, followed by a wash-step where the cells are washed and resuspended in compound-free cell media.
Cells were washed with PBS and lysed in RIPA lysis buffer (Thermo Fisher Scientific) with Halt Protease Inhibitor Cocktail (Thermo Fisher Scientific) and Benzonase (Sigma-Aldrich) for 20 min on ice. […] Membranes were blocked in Intercept (PBS) Blocking Buffer (LI-COR Biosciences) and incubated with primary antibodies overnight at 4 °C. The membranes were then washed in Tris-buffered saline with Tween-20 (TBS-T), incubated for 1 h with secondary IRDye-conjugated antibodies (LI-COR Biosciences) and washed three times in TBS-T for 5 min before near-infrared western blot detection on an Odyssey Imaging System (LI-COR Biosciences).
Background: In western blotting, separated proteins are transferred to a membrane and probed.

In data set [2] the target is T1, BRD4. The experiment in a line: Western blot of BRD4 degradation, wild-type K562 cells. Conditions: wild-type K562, 1 μM, 16 h. The data set is classed as cell-based. On the set-up: an 11 amino acid peptide knock-in tag to a protein-of-interest using CRISPR insertion; endogenous in cells. As to the method:
(§1) Western blotting was used to determine the degradation potencies of the covalent BRD4 degraders.
(§2) Cells were washed with PBS and lysed in RIPA lysis buffer (Thermo Fisher Scientific) with Halt Protease Inhibitor Cocktail (Thermo Fisher Scientific) and Benzonase (Sigma-Aldrich) for 20 min on ice. The insoluble fraction was removed by centrifugation, the protein concentration was quantified using a BCA protein assay kit (Thermo Fisher Scientific), and an equal amount of lysate was run on SDS–PAGE 4–12% Bis–Tris Protein Gels (Thermo Fisher Scientific) and then transferred to nitrocellulose membrane with a XCell II Blot Module Wet Tank Transfer System (Thermo Fisher Scientific). Membranes were blocked in Intercept (PBS) Blocking Buffer (LI-COR Biosciences) and incubated with primary antibodies overnight at 4 °C. The membranes were then washed in Tris-buffered saline with Tween-20 (TBS-T), incubated for 1 h with secondary IRDye-conjugated antibodies (LI-COR Biosciences) and washed three times in TBS-T for 5 min before near-infrared western blot detection on an Odyssey Imaging System (LI-COR Biosciences).

A further data set has as its target BRD4BD1 (Homo sapiens, UniProt O60885). Description: BRD4 AlphaScreen competition assay (JQ1-biotin displacement), BRD4BD1. Type of data set: binding. Conditions: read-out: IC50 BRD4BD1. (In Alpha technology, singlet oxygen from a donor bead excites a nearby acceptor bead.)
In data set [3] the target is T2, BRD4BD2 (Homo sapiens, UniProt O60885). The experiment in a line: BRD4 AlphaScreen competition assay (JQ1-biotin displacement), BRD4BD2. The data set is classed as binding. Conditions: read-out: IC50 BRD4BD2.
For data set [4], the target named is T2, BRD4BD2. The experiment in a line: BRD4BD2-eGFP and mCherry flow reporter degradation assay, wild type K562 cells. Conditions: for Dmax: K562, read-out: maximal degradation (Dmax/16h) of BRD4BD2, K562 cells, 16 h incubation.
Description: This assay involves the co-expression of mCherry with BRD4BD1/2 fused to an enhanced green fluorescent protein (eGFP) tag, and the subsequent fluorescence measurement of BRD4BD1/2-eGFP normalized to mCherry as a readout for BRD4BD1/2 degradation. It allows for a quantitative, rapid, and facile screening of several MGDs, in a dose-and time-dependent manner. […] Thus, the BRD4BD2 stability system was used to test all subsequent GNE011 analogs in wild type and DCAF16−/− cells.
One day after infection, reporter cells were selected with puromycin at a concentration of 2 μg/mL.
K562 cells stably expressing degradation reporter were dosed with DMSO or degraders at various times and concentrations using D300e Digital Dispenser (HP). The fluorescent signal was quantified by flow cytometry (LSRFortessa flow cytometer, BD Biosciences) and analyzed using FlowJo (flow cytometry analysis software, BD Biosciences). The geometric mean of the eGFP and mCherry fluorescent signal for round and mCherry-positive cells was calculated. GFP expression was normalized to mCherry signal and drug treatments were compared to DMSO controls.
Data set [5] addresses T3, BRD4BD2-DCAF16 ternary complex (Homo sapiens, UniProt O60885+Q9NXF7).
T3 construct: E3 ligase to bromodomain 2 (BRD4BD2); His6 (N); StrepII (N); Avi (N); made in house; host or cells: BRD4BD2: E. coli (pET100/D-TOPO)
Description: DDB1-DCAF16-BRD4BD2 TR-FRET ternary complex formation assay. The data set is classed as biochemical. Conditions: for TR-FRETmax (520 nm/490 nm ratio): 6 h degrader incubation. An excerpt:
To determine the relationship between covalent warheads and DCAF16 recruitment to BRD4BD2, we used a time-resolved fluorescence energy transfer (TR-FRET) assay to measure induced BRD4BD2-DCAF16 ternary complex formation (Fig. 3A).
Furthermore, we wanted to determine the kinetics of the BRD4BD2-DCAF16 interaction given its covalent nature. […] Additionally, to understand the relationship between ternary complex formation kinetics and warhead reactivity we measured the depletion of the covalent analogs in the presence of glutathione using MS (Table S2). […] Titrations of compounds to induce the DCAF16-BRD4BD complex were carried out by mixing 100 nM biotinylated BRD4BD2, 500 nM BODIPY-FL labeled DDB1ΔB-DCAF16 variants, and 2 nM terbium-coupled streptavidin (Invitrogen) in an assay buffer containing 50 mM HEPES pH 8.0, 200 mM NaCl, 0.1% Pluronic F-68 solution (Sigma), 0.5% bovine serum albumin (BSA) (w/v) and 1 mM TCEP. […] The TR-FRET signal of each data point was extracted by calculating the 520/490 nm ratio.
In general terms: In TR-FRET formats the signal depends on donor and acceptor labels being close together.

A short description of data set [6]: GSH stability (glutathione reactivity) assay by LC-MS/MS. The data set is classed as physicochemical. Conditions: phosphate buffered saline (PBS) without glutathione, extrapolated from 240 min assay.
For data set [7], the target named is T1, BRD4. The experiment in a line: Western blot of BRD4 degradation, DCAF16 KO K562 cells. The data set is classed as cell-based. On the set-up: an 11 amino acid peptide knock-in tag to a protein-of-interest using CRISPR insertion; endogenous in cells. The settings on record: DCAF16 KO K562, 1 μM, 16 h. On the procedure:
as §1, §2

The target of data set [8] is T1, BRD4. Description: BRD4-HiBiT assay, DCAF16 KO JURKAT cells. Type of data set: cell-based. On the set-up: an 11 amino acid peptide knock-in tag to a protein-of-interest using CRISPR insertion; endogenous in cells; host or cells: JURKAT, HiBiT-edited (wild type or DCAF16 knockout). Conditions: 6 h. On the procedure: (§3) Thereafter, we sought to characterize the BRD4 cellular degradation potencies in a dose-dependent manner at a shorter time point to minimize secondary effects. This was performed using the bioluminescent HiBiT-BRD4 assay, which consists of an 11 amino acid peptide knock-in tag to a protein-of-interest using CRISPR insertion. A complementary polypeptide (LgBiT) detects and interacts with all HiBiT tagged proteins, thereby reconstituting a luminescent NanoBiT enzyme, that can be quantified by its bioluminescence. WT and DCAF16 KO JURKAT cell lines expressing the BRD4-HiBiT system were generated to quantify dose-dependent BRD4 degradation after 6 h incubation (Fig. 4C).
(§4) After 6 h, the plates were subjected to Nano-Glo HiBiT Lytic detection system (Promega, #N3040) as described in manufacturer's manual. The assays were performed in biological triplicate. DC50 values were determined using a non-linear regression curve fit in GraphPad PRISM 9.5.1.

For data set [9], the target named is T1, BRD4. The experiment in a line: BRD4-HiBiT assay, WT JURKAT cells. The settings on record: 6 h. Also noted: an 11 amino acid peptide knock-in tag to a protein-of-interest using CRISPR insertion; endogenous in cells; host or cells: JURKAT, HiBiT-edited (wild type or DCAF16 knockout). Type of data set: cell-based. As to the method:
as §3, §4

For orientation: half-life means the time needed for the level to fall by half in the phase considered. Broadly, the pIC50 is −log10 of the IC50, conventionally taken in molar units. The term DC50 denotes the concentration giving 50% degradation.

pIC50: −log10 of the molar value.

T3 sequence (Q9NXF7 whole entry, other chains not shown): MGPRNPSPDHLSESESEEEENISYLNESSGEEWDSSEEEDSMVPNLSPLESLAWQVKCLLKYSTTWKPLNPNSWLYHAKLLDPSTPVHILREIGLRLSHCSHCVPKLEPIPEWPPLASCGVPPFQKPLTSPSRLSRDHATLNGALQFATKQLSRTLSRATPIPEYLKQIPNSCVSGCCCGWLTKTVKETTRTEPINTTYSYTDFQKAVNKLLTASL

Turning to `Cc1sc2c(c1C)C(c1ccc(C#CCN)cc1)=N[C@@H](CC(=O)OC(C)(C)C)c1nnc(C)n1-2` [GNE011, tert-butyl (S)-2-(4-(4-(3-aminoprop-1-yn-1-yl)phenyl)-2,3,9-trimethyl-6H-thieno[3,2-f][1,2,4]triazolo[4,3-a][1,4]diazepin-6-yl)acetate, reference compound], the half-life with glutathione was 11.3 h; in [6], greater than 12.5 h. On BRD4 [1], the “BRD4 degradation after washout compared to no washout (in words)” value is given as “nearly a complete rescue”. In addition, the “BRD4 degradation by Western blot (in words)” value on BRD4 [2] is given as “moderate degradation”. Moreover, the values for the pIC50 on BRD4BD1 and on BRD4BD2 [3] were 7.95 and 8.11, respectively. Also, the Dmax on BRD4BD2 [4] was roughly 50%. Further, the “maximal degradation (Dmax/16h) of BRD4BD2” value on BRD4BD2 [4] (K562 cells, 16 h incubation) is on record as 49%. The “TR-FRETmax (520 nm/490 nm ratio)” value in [5] is 0.18.

Consider `Cc1sc2c(c1C)C(c1ccc(C#CC(N)=O)cc1)=N[C@@H](CC(=O)OC(C)(C)C)c1nnc(C)n1-2` [MMH287, tert-butyl (S)-2-(4-(4-(3-amino-3-oxoprop-1-yn-1-yl)phenyl)-2,3,9-trimethyl-6H-thieno[3,2-f][1,2,4]triazolo[4,3-a][1,4]diazepin-6-yl)acetate], for which the half-life with glutathione is 6.33 h; in data set [6], greater than 12.5 h. Also, on BRD4 [7], the “BRD4 degradation by Western blot in DCAF16 KO (in words)” value is given as “completely rescued by DCAF16 KO”. Moreover, the “BRD4 degradation after washout compared to no washout (in words)” value on BRD4 [1] is on record as “nearly a complete rescue”. Moreover, the “BRD4 degradation by Western blot (in words)” value at BRD4 [2] is “nearly complete BRD4 degradation”. Moreover, on BRD4BD1, the pIC50 is 7.89. Moreover, the “BRD4 degradation in DCAF16 KO (in words)” value at BRD4 [8] is reported as “completely rescued by DCAF16 KO”. Moreover, the Dmax on BRD4BD2 [4] came out at 69%. Besides, the DC50 on BRD4BD2 [4] (read-out: DC50 of BRD4BD2 degradation, K562 cells, 16 h incubation) is 0.051 µM. In addition, at BRD4 [9], the “BRD4 degradation (in words)” value was “noticeable BRD4 degradation”. In addition, the “TR-FRETmax (520 nm/490 nm ratio)” value in data set [5] amounted to 0.15. Also, the “BRD4BD2-DCAF16 ternary complex formation / DCAF16 recruitment (in words)” value in [5] (time-dependent TR-FRET) is recorded as “almost no increase in ternary complex formation”.

Source of the values: PMC11960843, “Exploration of the tunability of BRD4 degradation by DCAF16 trans-labelling covalent glues” (European journal of medicinal chemistry, 2024).
